# From patent publication US7662775B2 (Astellas Pharma Inc., priority 2000, dated 2010)
# Key:
# SD rats = test: Glucose tolerance test for SD rats (Example 9); type: in vivo, rat; details: 100 mg/kg intraperitoneally 5 minutes before 2 g/kg oral glucose, 30 minutes after glucose, p<0.05 vs control
# Description: (§1) SD rats (4 weeks old; CLEA JAPAN) were forced to fast overnight, and 2 g/kg of glucose was orally administered. 100 mg/kg of 2-(pyridine-4-yl)ethyl thiobenzoate (LT-1 Z 0059519) had been intraperitoneally administered 5 minutes before the glucose administration. An appropriate amount of blood was taken 0 minute, 30 minutes, 60 minutes, and 120 minutes after the glucose administration, and used for the measurement of a blood glucose level and a concentration of plasma insulin.
# (§2) For measuring the blood glucose level, a supernatant obtained by mixing blood and 0.33 mol/L perchloric acid (blood:0.33 mol/L perchloric acid=1:10) and centrifuging the mixture (3000×g, 10 minutes, 4° C.) was used. For measuring the concentration of plasma insulin, a supernatant obtained by centrifuging blood (3000×g, 10 minutes, 4° C.) was used. Further, Glucose C test Wako (Wako) was used in the measurement of the blood glucose level, and a rat insulin assay system (Amersham) was used in the measurement of the concentration of plasma insulin.
# FIG. 1 illustrates a time course of the concentration of plasma insulin (unit=ng/mL) after the oral administration of glucose, and FIG. 2 illustrates a time course of the blood glucose level (unit=mg/dL) after the oral administration of glucose. […]
# [1] = molecular target: T1, polypeptide consisting of the amino acid sequence of SEQ ID NO: 2 (Homo sapiens, UniProt Q8TDV5); test: CRE-luciferase reporter screening in transfected 293-EBNA cells (Example 7); type: cell-based; details: 293-EBNA cells transfected with pEF-BOS-NA and pCRE-Luc; 5-6 hours incubation; read-out: EC50 value (increase of reporter activity)
# T1 construct: expressed in transfected cells; host or cells: 293-EBNA cells, transient transfection with plasmid pEF-BOS-NA
# T1 sequence (Q8TDV5 1-335): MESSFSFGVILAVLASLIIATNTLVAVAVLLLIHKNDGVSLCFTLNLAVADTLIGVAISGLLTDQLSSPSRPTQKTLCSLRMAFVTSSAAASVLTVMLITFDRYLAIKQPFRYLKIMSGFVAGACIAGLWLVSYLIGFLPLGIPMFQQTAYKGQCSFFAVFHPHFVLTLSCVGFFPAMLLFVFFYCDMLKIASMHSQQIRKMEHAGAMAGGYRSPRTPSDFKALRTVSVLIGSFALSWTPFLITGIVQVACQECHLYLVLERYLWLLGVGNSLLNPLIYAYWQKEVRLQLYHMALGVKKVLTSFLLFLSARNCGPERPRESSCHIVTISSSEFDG
# Description: (§3) The pEF-BOS-NA plasmid used in Example 6 was also used in the present Example.
# 293-EBNA cells, (1×10^4 cells/well) were seeded on a 96-well plate coated with collagen, and cultured overnight in a Dulbecco modified Eagles' medium (DMEM) containing 10% fetal calf serum (FCS). Then, a transfection reagent (LIPOFECTAMINE 2000; GIBCO BRL) was used to transfect 0.01 ng of a plasmid pEF-BOS-NA or a plasmid pEF-BOS (negative control vector) and 5 ng of a pCRE-Luc vector (CLONTECH) to the cells. […] After the medium was aspirated, the cells were lysed with a cell lysing solution (cell lysis buffer LCβ; Toyo Ink Mfg.). A luciferase activity of the lysate was measured by a commercially available measuring kit (PicaGene Luminescent kit; Toyo Ink Mfg.) and a measuring apparatus (ML3000 microtiter plate luminometer; Dynatech Laboratories).
# [2] = system: mouse pancreatic β cell line MIN6; test: Insulin secretion from mouse pancreatic β cell line MIN6, Part 1 (Example 8); type: cell-based; details: MIN6 cells, 20 minutes
# Description: MIN6 cells (2×10^5 cells) were seeded on a 24-well plate, and cultured for 2 days in a DMEM containing 10% FCS. The medium was aspirated, and the cells were washed with KRB-HEPES (140 mmol/L NaCl, 3.6 mmol/L KC1, 0.5 mmol/L NaH2PO4, 0.5 mmol/L MgSO4, 1.5 mmol/L CaCl2, 10 mmol/L Hepes, 2 mmol/L NaHCO3, 0.1% BSA, pH7.4). After 2.8 mmol/L glucose-containing KRB-HEPES (1 ml) was added, the whole was incubated at 37° C. for 30-60 minutes in the presence of 5% CO2.
# After the buffer was aspirated, one of the four compounds obtained by the screening in Example 7, i.e., 2-(pyridine-4-yl)ethyl thiobenzoate, in the form of a solution (0.5 ml) prepared by diluting the compound with 2.8 mmol/L or 16.8 mmol/L glucose-containing KRB-HEPES, was added, and the whole was incubated at 37° C. for 20 minutes in the presence of 5% CO2. A supernatant was used for measuring an amount of insulin secreted.
# (§4) A commercially available insulin radioimmunoassay kit (Phadeseph insulin; Pharmacia Upjohn) was used for the measurement of the amount of insulin secreted.
# GK (Goto-Kakizaki) rats = test: Glucose tolerance test for GK rats, type II diabetes model (Example 9); type: in vivo, rat; details: 100 mg/kg orally administered, 2 g/kg oral glucose, 30 and 60 minutes after glucose
# Description: as §1, §2
# Then, a glucose tolerance test for GK (Goto-Kakizaki) rats (type II diabetes models with incomplete insulin secretion; 7 weeks old; Charles River Japan) by one oral dose was carried out. […]
# [3] = molecular target: T1, polypeptide consisting of the amino acid sequence of SEQ ID NO: 2; test: Intracellular cAMP amount in transfected 293-EBNA cells, enzymeimmunoassay (Example 11); type: cell-based; details: 293-EBNA cells transfected with pEF-BOS-NA; 1 mmol/L IBMX; 30 minutes
# Description: as §3
# 293-EBNA Cells (1×10^4 cells/well) were seeded on a 96-well plate coated with collagen, and cultured for 24 hours. Then, a transfection reagent (LIPOFECTAMINE 2000; GIBCO BRL) was used to transfect 3 ng of a plasmid pEF-BOS-NA or a plasmid pEF-BOS (negative control vector) to the cells. The transfected cells were further cultured for 20 hours, and the medium was aspirated. After 80 μL of 1 mmol/L IBMX (3-isobutyl-1-methylxanthine)/0.1% BSA/DMEM was added, the whole was incubated at 37° C. for 10 minutes in the presence of 5% CO2. Then, a test compound diluted with 20 μL of 1 mmol/L IBMX/0.1% BSA/DMEM was added, and the whole was incubated for 30 minutes. After the medium was aspirated, the resulting cells were used for the measurement of an amount of cAMP. A commercially available cAMP enzymeimmunoassay system (cyclic AMP kit; Nihon Schering) was used to measure the amount of cAMP.
# [4] = molecular target: T1, polypeptide consisting of the amino acid sequence of SEQ ID NO: 2; test: CRE-luciferase reporter screening in transfected 293-EBNA cells (Example 10); type: cell-based; details: 293-EBNA cells transfected with pEF-BOS-NA and pCRE-Luc; 6 hours; specific versus pEF-BOS control vector
# Description: as §3
# 293-EBNA cells (7×10^4 cells/well) were seeded on a 24-well plate coated with collagen, and cultured overnight in a Dulbecco modified Eagles' medium (DMEM) containing 1% fetal calf serum (FCS). Then, a transfection reagent (LIPOFECTAMINE 2000; GIBCO BRL) was used to transfect 0.1 ng of a plasmid pEF-BOS-NA or a plasmid pEF-BOS (negative control vector) and 20 ng of a pCRE-Luc vector (CLONTECH) to the cells. The transfected cells were further cultured for 18-20 hours, and then a test compound diluted with a medium containing 0.1% BSA was added, and the whole was incubated at 37° C. for 6 hours in the presence of 5% CO2. After the medium was aspirated, the cells were lysed with a cell lysing solution (cell lysis buffer LCβ; Toyo Ink Mfg.). A luciferase activity of the lysate was measured by a commercially available measuring kit (PicaGene Luminescence kit; Toyo Ink Mfg.) and a measuring apparatus (ML3000 microtiter plate luminometer; Dynatech Laboratories).
# L-α-lysophosphatidylcholine oleoyl (L1881; SIGMA), a biocomponent, could be obtained.
# [5] = system: mouse pancreatic β cell line MIN6; test: Insulin secretion from mouse pancreatic β cell line MIN6, Part 2 (Example 12); type: cell-based; details: MIN6 cells, 16.8 mmol/L glucose, 30 minutes
# Description: MIN6 cells (2.5×10^5 cells) were seeded on a 24-well plate coated with collagen, and cultured for 2 days in a DMEM containing 10% FCS (Cat. No. 11995-065; GIBCO BRL). The medium was aspirated, and 0.4 mL of a glucose-free DMEM containing 10% FCS (Cat. No. 11966-025; GIBCO BRL) was added. The whole was incubated at 37° C. for 2 hours in the presence of 5% CO2.
# After the medium was aspirated, 0.5 mL of a solution of L-α-lysophosphatidylcholine oleoyl, the compound selected by the screening method in Example 10, diluted with 2.8 mmol/L or 16.8 mmol/L glucose-containing DMEM (Cat. No. 11966-025; GIBCO BRL) was added, and the whole was incubated at 37° C. for 30 minutes in the presence of 5% CO2. A supernatant was used for measuring an amount of insulin secreted.
# as §4
Compound,concentration of plasma insulin (SD rats),increase of the blood glucose level by the glucose administration (SD rats),EC50 [1],amount of insulin secreted ([2]; 2.8 mmol/L glucose),amount of insulin secreted ([2]; 16.8 mmol/L glucose),increase of the blood glucose level by the glucose administration (GK (Goto-Kakizaki) rats),amount of cAMP [3],reporter activity (luciferase) [4],amount of insulin secreted [5]
O=C(SCCc1ccncc1)c1ccccc1,significant increase,significantly suppressed,3.2 µM,did not cause an increase,caused an increase,significantly suppressed,,,
CCCCCCCC/C=C\CCCCCCCC(=O)OC[C@@H](O)COP(=O)([O-])OCC[N+](C)(C)C [L-α-lysophosphatidylcholine oleoyl],,,,,,,exhibited an increase of the amount of cAMP specifically in the cells,increase of a reporter activity specifically in cells,caused an increase
